Data published in patent US20120012123A1, “COMPOSITIONS, ARTICLES AND METHODS FOR PREVENTING OR REDUCING TOBACCO-ASSOCIATED DAMAGE” (Technion Research & Development Foundation Ltd., priority 2007, published 2012).

Assays:
[1] = test system: H1299 human lung cancer cells; assay: H1299 cells survival after cigarette smoke (CS) exposure with/without saliva, Trypan Blue exclusion test; assay type: cell-based
Procedure: During smoke exposure, the cells were put into a smoking sealed chamber (33.5 cm^3) with CS pressure of 0.3 Bar. Control cells were subjected to the same procedures, but exposed only to fresh air. Cells were exposed to CS for one “puffs” every 15 minute for a 2 hours (120 minutes) period (unless indicated otherwise). Cells were used when it becomes confluent and the medium (with/without saliva) volume was compatibly to the dish in use.
The H1299 cells viability was measured at various time points by Trypan Blue exclusion test, both in exposed and control cells.
The medium covering the dish was collected and cells were trypsinized and centrifuged at 1200×g for 10 minutes. Cell pellets were re-suspended in 1 mL of medium and a sample was collect for cell counting. Cells were stained with the vital dye Trypan Blue at final concentration of 0.25% and were placed on hemocytometer. Visual counting was preformed by inverted microscope.
H1299 cells were incubated for 120 minutes with or without the presence of saliva in the culture medium and exposed to CS. […] Cell viability was evaluated by Trypan blue exclusion dye assay.

p53 = assay: Total p53 expression levels, Western blot analysis; assay type: cell-based, human; details: 2 mM GSH, exposure of CS 120 minutes and 33% saliva (FIG. 17)
Procedure: Western blot analysis was used to assay the protein expression levels of the P53, using β-actin signal as a loading reference. Samples with equal amount of protein (20 μg protein/lane) were prepared in 2× sample buffer (0.125 M 2-amino-2-(hydroxymethyl)propane-1,3-diol (Tris)-HCl, pH 6.8, glycerol (20% v/v), SDS (4% w/v), 0.14 M β-mercaptoethanol and bromophenol blue (0.005% w/v)). The samples were boiled for 10 minutes and subjected to electrophoresis through 12% SDS-polyacrylamide gel in running buffer, or stored at −20° C. until further use. The gels were then electrophoretically transferred to nitrocellulose membranes for 90 minutes at 90 W, in transfer buffer containing 20 mM Tris-HCl, pH 6.8, 150 mM Glycine and 20% (v/v) methanol. Blots were blocked in 5% non-fat milk in PBS-T (62.5 mM sodium phosphate buffer, pH 7.4, containing 100 mM NaCl and 0.1% (v/v) Tween-20) and then incubated for 2 hours or overnight at 4° C. with rabbit antihuman p53 1:5000 or mouse antihuman β-actin 1:15000. […] Binding of antibodies to the membrane was detected with an EZ-ECL-detection reagent, X-Omat blue XB-1 Kodak scientific Imaging Film for 10 seconds-15 minutes.
The effect of CS on p53 accumulation was analyzed. […] Western blot analysis was performed and the amount of p53 was evaluated.

[2] = test system: oral cancer cells (SCC-25); assay: Oral cancer cells (SCC-25) survival after CS exposure with/without saliva, Trypan blue assay; assay type: cell-based; details: 5 mM PenA, CS 120 minutes
Source text: In FIG. 18A, (n=14) and (p=0.0024) and in […], (n=7) and (p=0.015).
Similar results were obtained with oral cancer cells (SCC-25).

H1299 cells [3] = assay: Cell viability by Propidium Iodide (PI) fluorescence, flow cytometry, after CS exposure; assay type: cell-based, human; details: mean ± SD, n = 4
Procedure: FACS was used to monitor cell-cycle and cell-viability after CS exposure with/without saliva presence. After cells were exposed to ROS attack, medium covering the cells was removed and cells were trypsinized. For cell viability, cell suspension was centrifuged at 1200×g for 10 minutes and the pellets were re-suspended in 0.5 ml of 10 μg/ml Propidium iodide (PI) and incubated for 15 minutes at dark condition, 4° C. The cell suspensions were thereafter analyzed with a flow cytometer, using CellQuest software. […] PI is excluded by viable cells, and penetrates to cell membranes of dead cells. H1299 cells were incubated for 120 minutes with or without the presence of saliva in the culture medium and exposed to CS. […] Cell viability was evaluated by fluorescence assay.

H1299 cells [4] = assay: Protein carbonyl assay (ELISA) on H1299 cells exposed to CS; assay type: cell-based, human; details: 5 mM PenA
Procedure: Protein carbonyl concentration was determined by enzyme-linked immunosorbent assay (ELISA), using the Zentech PC Test Kit (Zenith Technology, Dunedin, New Zealand). Briefly, protein cell extractions were allowed to react with a dinitrophenylhydrazine (DNP) solution (200 μl). The DNP-reacted proteins bound non-specifically to an ELISA plate, and the unconjugated DNP and non-protein entities were washed away. The adsorbed DNP-protein was then probed with an anti-DNP-biotin antibody, followed by a streptavidin-linked HRP probe. Then the […] reagent that contained peroxide was added to catalyze the oxidation of TMB. Finally, the reaction was stopped by the addition of a stopping reagent (acid, provided with the kit), and the absorbance was measured for each well at 450 nm using a spectrophotometer. Along with controls and samples, protein carbonyl standards were also included in the assay. The content of the carbonyl protein in the mitochondrial samples was determined as pmol/mg protein, using the standard curve.

H1299 lung cancer cells = assay: Mitochondrial membrane potential (ΔΨm), JC-1 incorporation by flow cytometry; assay type: cell-based, human; details: 5 mM agent
Procedure: (§1) For mitochondrial oxidative damage, pellets were re-suspended in 0.5 ml of 10 μg/ml 10-N-nonyl acridine orange (NAO) and incubated for 30 minutes at 37° C. and dark condition. Mitocondrial membrane potential was measured after staining cells with 1 μg/ml JC-1 (5,5′,6,6′-tetrachloro-1,1′,3,3′-tetraethylbenzimidazolyl carbocyanine iodide; Molecular Probes) for 30 minutes at 37° C. in the dark. Uncoupling with carbonyl cyanide p-trifluoromethoxyphenylhydrazone (FCCP) (20 µM for 30 minutes) was used as positive control.
Mitochondrial membrane permeabilization is an essential step leading to apoptosis. Disruption of ΔΨm irreversibly commits cells to undergo death and is an early marker of apoptosis. Furthermore, cigarette smoke was previously shown to induce mitochondrial depolarization in human monocytes. Therefore, reduced ΔΨm, as measured by diminished incorporation of the fluorescent dye JC-1, was used as an early indicator for CS-induced apoptosis.
H1299 lung cancer calls were exposed for 120 minutes to CS with or without saliva. […] JC-1 incorporation was measured by flow cytometry method.

H1299 lung cells = assay: Mitochondrial oxidative damage, NAO binding to cardiolipin by flow cytometry; assay type: cell-based, human; details: 5 mM agent, 120 minutes of CS exposure (FIG. 15)
Procedure: as §1
The mitochondrial quality is the amount of all the intra-cellular mitochondria and their content, and it is an important index of mitochondrial injury. Nonyl-Acridine Orange (NAO) is a fluorescent dye that can bind specifically to unoxidizable cardiolipin (CL), a mitochondrial phospholipid, independent of the mitochondria energetic state (ΔΨm). NAO lost its affinity for CL with a hydroperoxide fatty acid (CL-OOH).
NAO flow cytometry was used to measure the quality of H1299 lung cells exposed for 120 minutes to CS with or without saliva.

Structure (SMILES): CC(=O)N(O)CCCCCNC(=O)CCC(=O)N(O)CCCCCNC(=O)CCC(=O)N(O)CCCCCN [DES, deferoxamine]
- cellular death rate ([1]; 5 mM DES, CS 120 minutes and saliva (FIG. 12)): 20.5%

Structure (SMILES): N[C@@H](CCC(=O)N[C@@H](CS)C(=O)NCC(=O)O)C(=O)O [GSH, L-c-glutamyl-L-cysteinyl-glycine]
- protection of cell survival (in words) ([1]; 2 mM GSH, CS exposure alone, no saliva): no additional protection
- increase of cell survival ([1]; 2 mM GSH, CS exposure, saliva-containing medium (30% v/v) (FIG. 9)): more than 50%
- prevention of p53 downregulation (in words) (p53): totally preventing

Structure (SMILES): CC(C)(S)[C@@H](N)C(=O)O [PenA, D-penicillamine]
- effect on survival rate, 1 mM versus 5 mM (in words) ([1]; 1 mM and 5 mM PenA, CS exposure, medium or medium + 30% saliva (FIG. 7)): dose-dependent effect
- reduction of cells loss ([1]; 5 mM PenA, 120 minutes of exposure to CS, medium without saliva): 25%
- survival rate ([1]; 5 mM PenA, CS 120 minutes, medium + 30% saliva (FIG. 7)): 76.4%
- survival rate ([1]; 5 mM PenA, CS 120 minutes, medium alone, no saliva (FIG. 7)): 75.5%
- reduction of cells loss (in words) ([1]; 5 mM PenA, saliva supplemented to the medium prior to exposure to CS): Reduction of cells loss was also observed
- increase of cells survival ([1]; PenA, CS 120 minutes, medium alone, percent of control (FIG. 6A)): 12%
- increase of cell survival ([1]; PenA, CS 120 minutes, saliva-containing medium (30% v/v), percent of control (FIG. 6A)): 20%
- survival loss ([2]; absence of saliva (FIG. 18A)): 23%
- survival loss ([2]; saliva added to medium (FIG. 18B)): 22%
- Positive dead cells (%) (H1299 cells [3]; CS 120 minutes + 5 mM PenA + saliva): 2.33%
- Positive dead cells (%) (H1299 cells [3]; CS 120 minutes + 5 mM PenA, no saliva): 2.98%
- Positive dead cells (%) (H1299 cells [3]; Medium + 5 mM PenA + saliva, no CS): 4.15%
- Positive dead cells (%) (H1299 cells [3]; Medium + 5 mM PenA, no CS, no saliva): 3.75%
- protein carbonyl content (H1299 cells [4]; CS 60 minutes and saliva (FIG. 11)): 4.02 nmol/mg protein
- protein carbonyl content (H1299 cells [4]; CS 60 minutes, medium alone (FIG. 11)): 4.45 nmol/mg protein
- protection against ΔΨm losses (in words) (H1299 lung cancer cells; CS 120 minutes alone, no saliva (FIG. 14)): strong protection
- protection against ΔΨm losses (in words) (H1299 lung cancer cells; CS 120 minutes and 33% saliva (FIG. 14)): no significant change
- amount of NAO bound to mitochondrial CL (in words) (H1299 lung cells): the same
